For ten molecules, inhibition of growth, MIC50 and Activity results are on record in ChEMBL document CHEMBL4622870, “Design, synthesis and evaluation of hydrazine and acyl hydrazone derivatives of 5-pyrrolidin-2-one as antifungal agents” (Bioorg Med Chem Lett, 2020).

The subject of data set [1] is Fusarium solani. Description: Antifungal activity against Fusarium solani assessed as fungal growth inhibition at 100 ug/ml by micro-dilution method relative to control. Type of data set: functional. Particulars: read-out: GI.
In data set [2] the test system is Paecilomyces variotii. Put plainly: Antifungal activity against Paecilomyces variotii assessed as fungal growth inhibition at 100 ug/ml by micro-dilution method relative to control. Type of data set: functional. The settings on record: read-out: GI. (Dilution methods test growth across graded concentrations, often in twofold steps.)
For data set [3], the system named is Penicillium ochrochloron. Description: Antifungal activity against Penicillium ochrochloron assessed as fungal growth inhibition at 100 ug/ml by micro-dilution method relative to control. The settings on record: read-out: GI. Type of data set: functional.
The next data set has as its system Aspergillus oryzae. Put plainly: Antifungal activity against Aspergillus oryzae assessed as fungal growth inhibition at 100 ug/ml by micro-dilution method relative to control. The settings on record: read-out: GI. It counts as functional.
Another data set has as its system Botrytis cinerea. Put plainly: Antifungal activity against Botrytis cinerea assessed as fungal growth inhibition at 100 ug/ml by micro-dilution method relative to control. Type of data set: functional. Particulars: read-out: GI.
Another data set deals with Alternaria alternata. Put plainly: Antifungal activity against Alternaria alternata assessed as fungal growth inhibition at 100 ug/ml by micro-dilution method relative to control. It counts as functional. The settings on record: read-out: GI.
Data set [4] deals with Cladosporium cladosporioides. Description: Antifungal activity against Cladosporium cladosporioides assessed as fungal growth inhibition at 100 ug/ml by micro-dilution method relative to control. The settings on record: read-out: GI. Type of data set: functional.
The next data set deals with Sclerotinia sclerotiorum. Put plainly: Antifungal activity against Sclerotinia sclerotiorum assessed as fungal growth inhibition at 100 ug/ml by micro-dilution method relative to control. The settings on record: read-out: GI. It counts as functional.
The subject of data set [5] is Geotrichum candidum. Description: Antifungal activity against Geotrichum candidum assessed as fungal growth inhibition at 100 ug/ml by micro-dilution method relative to control. Particulars: read-out: GI. It counts as functional.
The test system of another data set is Pichia kudriavzevii. Put plainly: Antifungal activity against Candida krusei assessed as fungal growth inhibition at 100 ug/ml by micro-dilution method relative to control. It counts as functional. The settings on record: read-out: GI.
A further data set deals with Kluyveromyces marxianus. Description: Antifungal activity against Candida pseudotropicalis assessed as fungal growth inhibition at 100 ug/ml by micro-dilution method relative to control. Type of data set: functional. Particulars: read-out: GI.
A further data set relates to Candida tropicalis. Put plainly: Antifungal activity against Candida tropicalis assessed as fungal growth inhibition at 100 ug/ml by micro-dilution method relative to control. It counts as functional. Particulars: read-out: GI.
In data set [6] the test system is Geotrichum candidum. Put plainly: Antifungal activity against Geotrichum candidum assessed as fungal growth inhibition by micro-dilution method. It counts as functional.
Another data set concerns HEK293. Put plainly: Cytotoxicity against human HEK293 cells assessed as effect on cell viability measured after 72 hrs by MTS assay. Particulars: hek293, 72 h. Type of data set: cell-based.
Data set [7] has as its system Fusarium solani. Description: Antifungal activity against Fusarium solani assessed as fungal growth inhibition by micro-dilution method. Type of data set: functional.
The test system of data set [8] is Penicillium ochrochloron. Description: Antifungal activity against Penicillium ochrochloron assessed as fungal growth inhibition by micro-dilution method. Type of data set: functional.
Data set [9] relates to Cladosporium cladosporioides. Put plainly: Antifungal activity against Cladosporium cladosporioides assessed as fungal growth inhibition by micro-dilution method. Type of data set: functional.
In data set [10] the test system is Paecilomyces variotii. Description: Antifungal activity against Paecilomyces variotii assessed as fungal growth inhibition by micro-dilution method. Type of data set: functional.

On to `O=C1CC[C@@H](C(=O)N/N=C/c2ccc(C(F)(F)F)cc2)N1`, for which the inhibition of growth at 100 µg/mL in the data set on Fusarium solani [1] is 55%; in the data set on Paecilomyces variotii [2], 44%; in the data set on Penicillium ochrochloron [3], 44%; in the data set with Aspergillus oryzae, 0%; with Botrytis cinerea it was 0%; in the data set with Alternaria alternata, 21%. The inhibition of growth at 100 µg/mL in [4] was found to be 11%; with Sclerotinia sclerotiorum, 0%; with Geotrichum candidum [5], 85%; in the data set with Pichia kudriavzevii, 21%; with Kluyveromyces marxianus, 21%; with Candida tropicalis it was 17%. In addition, the MIC50 – broadly, the lowest concentration that inhibits either 50% of growth or 50% of the strains tested, depending on the study – in the data set with Geotrichum candidum [6] worked out at 63.7 µg/mL. The Activity result in the data set on HEK293 is “Non-Toxic”.

As for `O=C1CC[C@@H](C(=O)N/N=C/c2ccccc2[N+](=O)[O-])N1`, the inhibition of growth at 100 µg/mL came out at 100% in the data set with Fusarium solani [1]; 3% in the data set with Paecilomyces variotii [2]; 13% with Penicillium ochrochloron [3]; 32% in the data set with Aspergillus oryzae; 27% in the data set on Botrytis cinerea; 0% in the data set with Alternaria alternata. Also, the inhibition of growth at 100 µg/mL stood at 0% in data set [4]; 21% in the data set with Sclerotinia sclerotiorum; 50% in the data set with Geotrichum candidum [5]; 0% in the data set with Pichia kudriavzevii; 35% in the data set with Kluyveromyces marxianus; 19% in the data set with Candida tropicalis. In addition, the MIC50 with Fusarium solani [7] came out at 51.6 µg/mL. Further, the Activity entry in the data set on HEK293 is recorded as “Non-Toxic”.

For the molecule `O=C1CC[C@@H](C(=O)N/N=C/c2ccc(Cl)cc2)N1`, the inhibition of growth at 100 µg/mL with Fusarium solani [1] worked out at 61%; in the data set with Paecilomyces variotii [2], 27%; in the data set on Penicillium ochrochloron [3] it was 92%; in the data set on Aspergillus oryzae it was 0%; with Botrytis cinerea, 34%; with Alternaria alternata, 20%. Also, the inhibition of growth at 100 µg/mL turned out to be 98% in data set [4]; 58% in the data set with Sclerotinia sclerotiorum; 92% in the data set with Geotrichum candidum [5]; 26% in the data set with Pichia kudriavzevii; 50% in the data set with Kluyveromyces marxianus; 47% in the data set on Candida tropicalis. The MIC50 with Penicillium ochrochloron [8] is 15.4 µg/mL; in [9] it was 23.9 µg/mL; in the data set with Geotrichum candidum [6] it was 1.8 µg/mL. Further, in the data set on HEK293, the Activity entry is reported as “Non-Toxic”.

In the case of `O=C1CC[C@@H](C(=O)N/N=C/c2ccc(Cl)nc2)N1`, the inhibition of growth at 100 µg/mL stood at 23% with Fusarium solani [1]; 42% in the data set on Paecilomyces variotii [2]; 62% in the data set on Penicillium ochrochloron [3]; 0% with Aspergillus oryzae; 0% with Botrytis cinerea; 0% in the data set with Alternaria alternata. Moreover, the inhibition of growth at 100 µg/mL worked out at 33% in [4]; 0% with Sclerotinia sclerotiorum; 72% with Geotrichum candidum [5]; 2% in the data set on Pichia kudriavzevii; 10% in the data set with Kluyveromyces marxianus; 0% in the data set on Candida tropicalis. For the same molecule, the MIC50 in the data set with Geotrichum candidum [6] was found to be 38.4 µg/mL. In addition, the Activity result in the data set with HEK293 is recorded as “Non-Toxic”.

As for `O=C1CC[C@@H](C(=O)N/N=C/c2ccc([N+](=O)[O-])cc2)N1`, the inhibition of growth at 100 µg/mL in the data set on Fusarium solani [1] was 100%; in the data set on Paecilomyces variotii [2] it was 20%; in the data set on Penicillium ochrochloron [3], 14%; with Aspergillus oryzae it was 0%; in the data set on Botrytis cinerea, 0%; in the data set on Alternaria alternata, 30%. The inhibition of growth at 100 µg/mL in data set [4] was found to be 40%; in the data set on Sclerotinia sclerotiorum it was 9%; in the data set on Geotrichum candidum [5] it was 30%; with Pichia kudriavzevii, 22%; in the data set with Kluyveromyces marxianus, 38%; in the data set with Candida tropicalis, 42%. In the data set with Fusarium solani [7], the MIC50 came to 59.1 µg/mL. Also, the Activity result in the data set on HEK293 is recorded as “Non-Toxic”.

With `O=C1CC[C@@H](C(=O)N/N=C/c2c(Cl)cccc2Cl)N1`, the inhibition of growth at 100 µg/mL in the data set with Fusarium solani [1] stood at 60%; with Paecilomyces variotii [2] it was 13%; in the data set with Penicillium ochrochloron [3], 22%; with Aspergillus oryzae, 12%; with Botrytis cinerea, 0%; in the data set on Alternaria alternata, 0%. Further, the inhibition of growth at 100 µg/mL in data set [4] is 12%; in the data set on Sclerotinia sclerotiorum, 58%; in the data set with Geotrichum candidum [5] it was 73%; in the data set with Pichia kudriavzevii, 0%; with Kluyveromyces marxianus, 32%; with Candida tropicalis it was 16%. The MIC50 in the data set with Geotrichum candidum [6] is 1.8 µg/mL. The Activity result in the data set with HEK293 was “Non-Toxic”.

Regarding `O=C1CC[C@@H](C(=O)N/N=C/c2ccccc2O)N1`, the inhibition of growth at 100 µg/mL was found to be 40% in the data set on Fusarium solani [1]; 14% in the data set on Paecilomyces variotii [2]; 30% in the data set on Penicillium ochrochloron [3]; 7% in the data set with Aspergillus oryzae; 0% in the data set on Botrytis cinerea; 38% in the data set with Alternaria alternata. The inhibition of growth at 100 µg/mL amounted to 0% in [4]; 21% in the data set on Sclerotinia sclerotiorum; 70% in the data set with Geotrichum candidum [5]; 38% in the data set with Pichia kudriavzevii; 18% in the data set on Kluyveromyces marxianus; 7% in the data set with Candida tropicalis. For the same molecule, the MIC50 with Geotrichum candidum [6] amounted to 62 µg/mL. In the data set with HEK293, the Activity entry is reported as “Non-Toxic”.

For the molecule `Cc1ccc(/C=N/NC(=O)[C@@H]2CCC(=O)N2)cc1`, the inhibition of growth at 100 µg/mL in the data set with Fusarium solani [1] is 94%; in the data set with Paecilomyces variotii [2] it was 35%; in the data set on Penicillium ochrochloron [3], 0%; in the data set on Aspergillus oryzae it was 11%; in the data set on Botrytis cinerea it was 0%; in the data set on Alternaria alternata, 0%. The inhibition of growth at 100 µg/mL amounted to 5% in data set [4]; 0% with Sclerotinia sclerotiorum; 28% in the data set on Geotrichum candidum [5]; 28% in the data set on Pichia kudriavzevii; 32% in the data set with Kluyveromyces marxianus; 33% in the data set on Candida tropicalis. The MIC50 in the data set on Fusarium solani [7] was found to be 102 µg/mL. In addition, the Activity result with HEK293 is “Non-Toxic”.

As for `CN(NC1CCC(=O)N1)c1ccccc1` (racemic), the inhibition of growth at 100 µg/mL in the data set on Fusarium solani [1] is 100%; in the data set with Paecilomyces variotii [2] it was 70%; in the data set with Penicillium ochrochloron [3], 56%; with Aspergillus oryzae, 45%; in the data set on Botrytis cinerea, 20%; in the data set on Alternaria alternata, 0%. In addition, the inhibition of growth at 100 µg/mL was 42% in data set [4]; 46% in the data set with Sclerotinia sclerotiorum; 18% with Geotrichum candidum [5]; 20% in the data set on Pichia kudriavzevii; 61% with Kluyveromyces marxianus; 20% in the data set on Candida tropicalis. Also, the MIC50 in the data set on Fusarium solani [7] turned out to be 31 µg/mL; with Paecilomyces variotii [10] it was 14.8 µg/mL. Besides, in the data set on HEK293, the Activity entry was “Non-Toxic”.

With `OC(Cn1cncn1)(Cn1cncn1)c1ccc(F)cc1F` [FLUCONAZOLE], the MIC50 in the data set on Geotrichum candidum [6] came to 1.6 µg/mL.
